Our source for the Ki values is ChEMBL document CHEMBL1136827, “Further exploration of 1-[2-[Bis-(4-fluorophenyl)methoxy]ethyl]piperazine (GBR 12909): role of N-aromatic, N-heteroaromatic, and 3-oxygenated N-phenylpropyl substituents on affinity for the dopamine and serotonin transporter” (Bioorg Med Chem Lett, 2003).

In experiment [1] the target is Sodium-dependent dopamine transporter (Rattus norvegicus, UniProt P23977). Kind of experiment: Binding affinity towards dopamine transporter (DAT).
Experiment [2] deals with Sodium-dependent serotonin transporter (Rattus norvegicus, UniProt P31652). The experiment can be described thus: Binding affinity towards rat serotonin transporter (SERT).
Sodium-dependent serotonin transporter, sequence (P31652 whole entry): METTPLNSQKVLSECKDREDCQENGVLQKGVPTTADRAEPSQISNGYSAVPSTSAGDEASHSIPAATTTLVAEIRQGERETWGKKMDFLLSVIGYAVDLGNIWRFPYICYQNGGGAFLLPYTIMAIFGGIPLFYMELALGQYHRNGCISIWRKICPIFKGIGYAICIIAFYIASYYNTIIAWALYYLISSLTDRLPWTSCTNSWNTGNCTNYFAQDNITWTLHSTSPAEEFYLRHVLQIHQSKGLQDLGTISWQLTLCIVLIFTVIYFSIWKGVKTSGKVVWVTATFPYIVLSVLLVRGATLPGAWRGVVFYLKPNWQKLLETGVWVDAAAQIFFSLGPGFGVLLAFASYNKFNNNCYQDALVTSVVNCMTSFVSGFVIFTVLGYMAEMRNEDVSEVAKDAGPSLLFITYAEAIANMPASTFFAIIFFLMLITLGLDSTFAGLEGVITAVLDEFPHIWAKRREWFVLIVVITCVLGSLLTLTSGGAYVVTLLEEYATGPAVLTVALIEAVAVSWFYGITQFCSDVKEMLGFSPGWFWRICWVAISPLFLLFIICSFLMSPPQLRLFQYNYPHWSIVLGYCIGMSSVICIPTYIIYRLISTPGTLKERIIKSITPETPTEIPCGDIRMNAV

Sodium-dependent dopamine transporter, sequence (P23977 whole entry): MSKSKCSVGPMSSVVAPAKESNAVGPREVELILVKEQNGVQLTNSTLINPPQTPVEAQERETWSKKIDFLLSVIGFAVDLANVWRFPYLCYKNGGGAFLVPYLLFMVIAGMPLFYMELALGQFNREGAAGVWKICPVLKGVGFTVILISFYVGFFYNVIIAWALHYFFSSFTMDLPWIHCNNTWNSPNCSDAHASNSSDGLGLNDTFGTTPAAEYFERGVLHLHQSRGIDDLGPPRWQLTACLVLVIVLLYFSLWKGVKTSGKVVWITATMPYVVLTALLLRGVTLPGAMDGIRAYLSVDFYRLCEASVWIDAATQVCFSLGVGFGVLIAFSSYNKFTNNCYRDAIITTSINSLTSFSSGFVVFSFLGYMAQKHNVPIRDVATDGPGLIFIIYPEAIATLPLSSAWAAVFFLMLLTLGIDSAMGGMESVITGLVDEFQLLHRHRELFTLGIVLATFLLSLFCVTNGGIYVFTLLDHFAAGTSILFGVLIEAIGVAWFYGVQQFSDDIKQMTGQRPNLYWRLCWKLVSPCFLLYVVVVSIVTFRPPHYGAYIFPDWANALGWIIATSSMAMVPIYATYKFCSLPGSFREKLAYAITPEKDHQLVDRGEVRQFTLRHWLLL

Turning to `OC(CCN1CCN(CCOC(c2ccc(F)cc2)c2ccc(F)cc2)CC1)c1ccc(Br)cc1` (configuration not stated), the Ki – broadly, a dissociation constant, usually derived from enzyme kinetics or from competition with a known ligand – in experiment [1] stood at 2.5 nM; in experiment [2], 50 nM. For the compound `O=C(CCN1CCN(CCOC(c2ccccc2)c2ccccc2)CC1)c1cccc(F)c1`, the Ki amounted to 260 nM in experiment [1] and 1360 nM in experiment [2]. As to `COc1ccc2c(c1)CCC(CN1CCN(CCOC(c3ccc(F)cc3)c3ccc(F)cc3)CC1)C2=O` (configuration not stated), the Ki in experiment [1] was 22 nM; in experiment [2], 3 nM. Take `O=C1CCCCC1CN1CCN(CCOC(c2ccccc2)c2ccccc2)CC1` (configuration not stated): the Ki in experiment [1] was 250 nM; in experiment [2], 3300 nM. With `OC1CCCC1CN1CCN(CCOC(c2ccc(F)cc2)c2ccc(F)cc2)CC1` (configuration not stated), the inhibitory constant (Ki) in experiment [1] turned out to be 32 nM; in experiment [2], 920 nM. For `O=C1c2ccccc2CCC1CN1CCN(CCOC(c2ccccc2)c2ccccc2)CC1` (configuration not stated), the Ki in experiment [1] stood at 390 nM; in experiment [2], 1050 nM. For `OC1CCCC1CN1CCN(CCOC(c2ccccc2)c2ccccc2)CC1` (configuration not stated), in that order: 170 nM and 2200 nM.

`O=C(CCN1CCN(CCOC(c2ccc(F)cc2)c2ccc(F)cc2)CC1)c1cccc(F)c1`: the Ki in experiment [1] stood at 89 nM; in experiment [2], 220 nM. `OC(CCN1CCN(CCOC(c2ccccc2)c2ccccc2)CC1)c1ccc(Br)cc1` (configuration not stated): the Ki in experiment [1] came to 7.5 nM; in experiment [2], 340 nM. In the case of `O=C1CCCCCC1CN1CCN(CCOC(c2ccccc2)c2ccccc2)CC1` (configuration not stated), the Ki in experiment [1] came out at 270 nM; in experiment [2], 4100 nM.

As for `O=C(CCN1CCN(CCOC(c2ccccc2)c2ccccc2)CC1)c1ccc(Br)cc1`, the inhibition constant (Ki) in experiment [1] came to 290 nM; in experiment [2], 2600 nM. For `COc1ccc2c(c1)CC[C@@H](CN1CCN(CCOC(c3ccccc3)c3ccccc3)CC1)[C@@H]2O`, in that order: 40 nM and 93 nM.

For `O=C(CCN1CCN(CCOC(c2ccc(F)cc2)c2ccc(F)cc2)CC1)c1ccc(Br)cc1`, the results for the Ki in experiment [1] and in experiment [2] were 37 nM and 480 nM, respectively. For `O=C(CCN1CCN(CCOC(c2ccccc2)c2ccccc2)CC1)c1cccs1`, in that order: 190 nM and 1240 nM.

For `COc1ccc2c(c1)CCC(CN1CCN(CCOC(c3ccc(F)cc3)c3ccc(F)cc3)CC1)=C2`, the Ki in experiment [1] was determined as 14 nM; in experiment [2], 57 nM.

Consider `COc1ccc2c(c1)CC[C@@H](CN1CCN(CCOC(c3ccccc3)c3ccccc3)CC1)[C@H]2O`, for which the figures for the Ki in experiment [1] and in experiment [2] were 32 nM and 100 nM, respectively. On to `OC(CCN1CCN(CCOC(c2ccc(F)cc2)c2ccc(F)cc2)CC1)c1ccco1` (configuration not stated), for which the Ki in experiment [1] stood at 10 nM; in experiment [2], 150 nM. For `OC(CCN1CCN(CCOC(c2ccccc2)c2ccccc2)CC1)c1cccs1` (configuration not stated), in that order: 15 nM and 690 nM. As to `O=C1CCCC1CN1CCN(CCOC(c2ccccc2)c2ccccc2)CC1` (configuration not stated), the Ki in experiment [2] is 5700 nM.

On to `O[C@H]1c2ccccc2CC[C@H]1CN1CCN(CCOC(c2ccc(F)cc2)c2ccc(F)cc2)CC1`, for which the inhibitory constant (Ki) in experiment [1] was found to be 1.3 nM; in experiment [2], 30 nM. `COc1ccc2c(c1)CC[C@@H](CN1CCN(CCOC(c3ccc(F)cc3)c3ccc(F)cc3)CC1)[C@H]2O`: the Ki in experiment [1] was 7.3 nM; in experiment [2], 3 nM. For the compound `OC(CCN1CCN(CCOC(c2ccc(F)cc2)c2ccc(F)cc2)CC1)c1cccs1` (configuration not stated), the inhibition constant (Ki) in experiment [1] is 7.2 nM; in experiment [2] it was 59 nM. For `O=C1CCCCC1CN1CCN(CCOC(c2ccc(F)cc2)c2ccc(F)cc2)CC1` (configuration not stated), in that order: 62 nM and 1130 nM. With `O=C1c2ccccc2CCC1CN1CCN(CCOC(c2ccc(F)cc2)c2ccc(F)cc2)CC1` (configuration not stated), the figures for the Ki in experiment [1] and in experiment [2] were 57 nM and 110 nM, respectively.

On to `COc1ccc2c(c1)CCC(CN1CCN(CCOC(c3ccccc3)c3ccccc3)CC1)=C2`, for which the figures for the Ki in experiment [1] and in experiment [2] were 39 nM and 530 nM, respectively. For `Fc1ccc(C(OCCN2CCN(CC3=Cc4ccccc4CC3)CC2)c2ccc(F)cc2)cc1`, in that order: 6.4 nM and 260 nM.

Consider `COc1ccc2c(c1)CCC(CN1CCN(CCOC(c3ccccc3)c3ccccc3)CC1)C2=O` (configuration not stated), for which the inhibitory constant (Ki) in experiment [1] amounted to 78 nM; in experiment [2], 70 nM. With `O=C1CCCCCC1CN1CCN(CCOC(c2ccc(F)cc2)c2ccc(F)cc2)CC1` (configuration not stated), the figures for the Ki in experiment [1] and in experiment [2] were 49 nM and 530 nM, respectively.

Take `C1=C(CN2CCN(CCOC(c3ccccc3)c3ccccc3)CC2)CCc2ccccc21`: the Ki in experiment [1] was determined as 38 nM; in experiment [2], 1360 nM. For `O=C1CCCC1CN1CCN(CCOC(c2ccc(F)cc2)c2ccc(F)cc2)CC1` (configuration not stated), in that order: 84 nM and 970 nM.

`COc1ccc2c(c1)CC[C@@H](CN1CCN(CCOC(c3ccc(F)cc3)c3ccc(F)cc3)CC1)[C@@H]2O`: the Ki in experiment [1] came to 18 nM; in experiment [2], 3 nM.

For the compound `O[C@@H]1c2ccccc2CC[C@H]1CN1CCN(CCOC(c2ccc(F)cc2)c2ccc(F)cc2)CC1`, the Ki in experiment [1] was determined as 18 nM; in experiment [2], 32 nM. Consider `O[C@@H]1c2ccccc2CC[C@H]1CN1CCN(CCOC(c2ccccc2)c2ccccc2)CC1`, for which the Ki was found to be 59 nM in experiment [1] and 440 nM in experiment [2]. For `OC1CCCCC1CN1CCN(CCOC(c2ccc(F)cc2)c2ccc(F)cc2)CC1` (configuration not stated), in that order: 37 nM and 580 nM. Consider `OC(CCN1CCN(CCOC(c2ccc(F)cc2)c2ccc(F)cc2)CC1)c1cccc(F)c1` (configuration not stated), for which the Ki came to 3.9 nM in experiment [1] and 53 nM in experiment [2]. Consider `O=C(CCN1CCN(CCOC(c2ccccc2)c2ccccc2)CC1)c1ccco1`, for which the inhibitory constant (Ki) in experiment [1] turned out to be 300 nM; in experiment [2], 3300 nM.

Consider `O=C(CCN1CCN(CCOC(c2ccc(F)cc2)c2ccc(F)cc2)CC1)c1cccs1`, for which the Ki in experiment [1] was 84 nM; in experiment [2], 110 nM. For `OC(CCN1CCN(CCOC(c2ccccc2)c2ccccc2)CC1)c1ccco1` (configuration not stated), in that order: 19 nM and 1940 nM. Take `O[C@H]1c2ccccc2CC[C@H]1CN1CCN(CCOC(c2ccccc2)c2ccccc2)CC1`: the Ki in experiment [1] worked out at 35 nM; in experiment [2], 500 nM. For `OC1CCCCCC1CN1CCN(CCOC(c2ccc(F)cc2)c2ccc(F)cc2)CC1` (configuration not stated), in that order: 22 nM and 480 nM.

On to `O=C(CCN1CCN(CCOC(c2ccc(F)cc2)c2ccc(F)cc2)CC1)c1ccco1`, for which the Ki in experiment [1] came to 72 nM; in experiment [2], 350 nM. As to `OC1CCCCCC1CN1CCN(CCOC(c2ccccc2)c2ccccc2)CC1` (configuration not stated), the figures for the Ki in experiment [1] and in experiment [2] were 210 nM and 3900 nM, respectively.

For the compound `OC(CCN1CCN(CCOC(c2ccccc2)c2ccccc2)CC1)c1cccc(F)c1` (configuration not stated), the Ki in experiment [1] stood at 4.1 nM; in experiment [2] it was 910 nM.

`OC1CCCCC1CN1CCN(CCOC(c2ccccc2)c2ccccc2)CC1` (configuration not stated): the results for the Ki in experiment [1] and in experiment [2] were 210 nM and 3300 nM, respectively.
